Measured values: patent US7205327B2, “Imidazole and benzimidazole caspase inhibitors and uses thereof” (Vertex Pharmaceuticals Incorporated, priority 2000, dated 2007)
Counter-ions that a name gives are not always drawn.

Tested on: FAS induced apoptosis
Experiment: Anti-fas induced apoptosis assay
Assay type: cell-based
From the text: Anti-fas Induced Apoptosis Assay
Cellular apoptosis may be induced by the binding of Fas ligand (FasL) to its receptor, CD95 (Fas). Conditions for an assay to measure the effect of compounds on the inhibition of the caspase-8-mediated apoptotic pathway may be found in WO0142216.

SMILES | IC50 [µM]
CC[C@H](NC(=O)c1ncc[nH]1)C(=O)NC(CC(=O)O)C(=O)CF (stereo partly drawn) [Compound 3, [3S/R,(2S)]-5-Fluoro-3-{2-[(1H-imidazole-2-carbonyl)-amino]-butyrylamino}-4-oxo-pentanoic acid, trifluoroacetate salt] | < 0.2
CC(C)[C@H](NC(=O)c1ncc[nH]1)C(=O)NC(CC(=O)O)C(=O)CF (stereo partly drawn) [Compound 4, [3S/R,(2S)]-5-Fluoro-3-{2-[(1H-imidazole-2-carbonyl)-amino]-3-methylbutyrylamino}-4-oxo-pentanoic acid] | < 0.2
CC(C)[C@H](NC(=O)c1nc2ccccc2[nH]1)C(=O)NC(CC(=O)O)C(=O)CF (stereo partly drawn) [Compound 5, [3S/R, (2S)]-3-{2-[(1H-Benzoimidazole-2-carbonyl)-amino]-3-methylbutyrylamino}-5-fluoro-4-oxo-pentanoic acid] | < 0.2

The next lines start with the values.

IC50 [µM] | SMILES
< 0.2 | C[C@H](NC(=O)c1ncc[nH]1)C(=O)NC(CC(=O)O)C(=O)CF (stereo partly drawn) [Compound 1, [3S/R,(2S)]-5-Fluoro-3-{2-[(1H-imidazole-2-carbonyl)-amino]-propionylamino}-4-oxo-pentanoic acid, trifluoroacetate salt]
< 0.2 | C[C@H](NC(=O)c1nc2ccccc2[nH]1)C(=O)NC(CC(=O)O)C(=O)CF (stereo partly drawn) [Compound 2, [3S/R, (2S)]-3-{2-[(1H-Benzoimidazole-2-carbonyl)-amino]-propionylamino}-5-fluoro-4-oxo-pentanoic acid, trifluoroacetate salt]
